# Legend:
# Assay type in all cases: physicochemical
# [1] = Stability of Form I and Form II under various storage conditions
# Source text: In each case, the test material was first placed in Primary Packaging Material (LLDPE bag within a HMHDPE/LDPE/LDPE blend bag, and then heat sealed). The Primary Packaging Material was placed in Secondary Packaging Material (HDPE drum). All other impurities were less than 1% at each time point.
# [2] = Interconversion slurries of Form I and Form II
# Procedure: As shown in the interconversion of slurries experiment summarized below in the Examples in Table B, slurries of Forms I and II are prepared in 2-propanol (IPA) and […] (MEK) at ambient, sub-ambient, and elevated temperatures. In 2-propanol, conversion of Form I to Form II appears to be solubility driven at ambient and sub-ambient temperatures, with little apparent change observed in the ratio of Forms I and II by XRPD analysis over 3 days. Extending the interconversion period to 8 days at room temperature left only a trace of Form I remaining. In 2-propanol, at elevated temperature, only Form II is obtained.
# Interconversion studies by slurrying of Form I and Form II are shown in the following Table B in which the starting solid was a mixture of Form I and Form II; IPA is isopropyl alcohol (isopropanol) and MEK is methyl ethyl ketone (2-butanone).
# [3] = Mean intrinsic dissolution studies
# Source text: Mean intrinsic dissolution rates for exemplary batches of the two forms are shown in Table cC-2 for 3 batches of Form I (SD and % CV for one batch shown) and for Form II.
smiles,measurement,setting,value
CC[C@H]1OC(=O)[C@@](C)(F)C(=O)[C@H](C)[C@@H](O[C@@H]2O[C@H](C)C[C@H](N(C)C)[C@H]2O)[C@](C)(OC)C[C@@H](C)C(=O)[C@H](C)[C@H]2N(CCCCn3cc(-c4cccc(N)c4)nn3)C(=O)O[C@]12C [Form I (Lot 3)],3-Ethynylaniline,"[1]; 2-8° C., 3 Month",0.01%
same,Assay (on hydrous basis),"[1]; 2-8° C., 3 Month",98.9%
same,Chromatographic Purity,"[1]; 2-8° C., 3 Month",98.1%
same,Water,"[1]; 2-8° C., 3 Month",1.63%
same,3-Ethynylaniline,"[1]; 2-8° C., 6 Month",Not Detected
same,Assay (on hydrous basis),"[1]; 2-8° C., 6 Month",98.8%
same,Chromatographic Purity,"[1]; 2-8° C., 6 Month",98.4%
same,Water,"[1]; 2-8° C., 6 Month",1.61%
same,3-Ethynylaniline,"[1]; 2-8° C., 12 Month",Not Detected
same,Assay (on hydrous basis),"[1]; 2-8° C., 12 Month",98.7%
same,Chromatographic Purity,"[1]; 2-8° C., 12 Month",98.5%
same,Water,"[1]; 2-8° C., 12 Month",1.69%
same,3-Ethynylaniline,"[1]; 2-8° C., Initial",0.01%
same,Assay (on hydrous basis),"[1]; 2-8° C., Initial",99.5%
same,Chromatographic Purity,"[1]; 2-8° C., Initial",98.3%
same,Water,"[1]; 2-8° C., Initial",1.11%
same,3-Ethynylaniline,"[1]; 25° C./60% RH, 3 Month",0.01%
same,Assay (on hydrous basis),"[1]; 25° C./60% RH, 3 Month",98.7%
same,Chromatographic Purity,"[1]; 25° C./60% RH, 3 Month",98.1%
same,Water,"[1]; 25° C./60% RH, 3 Month",1.65%
same,3-Ethynylaniline,"[1]; 25° C./60% RH, 6 Month",Not Detected
same,Assay (on hydrous basis),"[1]; 25° C./60% RH, 6 Month",98.6%
same,Chromatographic Purity,"[1]; 25° C./60% RH, 6 Month",98.3%
same,Water,"[1]; 25° C./60% RH, 6 Month",1.71%
same,3-Ethynylaniline,"[1]; 25° C./60% RH, 12 Month",Not Detected
same,Assay (on hydrous basis),"[1]; 25° C./60% RH, 12 Month",98.5%
same,Chromatographic Purity,"[1]; 25° C./60% RH, 12 Month",98.4%
same,Water,"[1]; 25° C./60% RH, 12 Month",1.75%
same,3-Ethynylaniline,"[1]; 25° C./60% RH, Initial",0.01%
same,Assay (on hydrous basis),"[1]; 25° C./60% RH, Initial",99.5%
same,Chromatographic Purity,"[1]; 25° C./60% RH, Initial",98.3%
same,Water,"[1]; 25° C./60% RH, Initial",1.11%
same,3-Ethynylaniline,"[1]; 40° C./75% RH, 3 Month",0.01%
same,Assay (on hydrous basis),"[1]; 40° C./75% RH, 3 Month",98.5%
same,Chromatographic Purity,"[1]; 40° C./75% RH, 3 Month",98.0%
same,Water,"[1]; 40° C./75% RH, 3 Month",1.68%
same,3-Ethynylaniline,"[1]; 40° C./75% RH, 12 Month",0.01%
same,Assay (on hydrous basis),"[1]; 40° C./75% RH, 12 Month",98.3%
same,Chromatographic Purity,"[1]; 40° C./75% RH, 12 Month",98.3%
same,Water,"[1]; 40° C./75% RH, 12 Month",1.84%
same,3-Ethynylaniline,"[1]; 40° C./75% RH, Initial",0.01%
same,Assay (on hydrous basis),"[1]; 40° C./75% RH, Initial",99.5%
same,Chromatographic Purity,"[1]; 40° C./75% RH, Initial",98.3%
same,Water,"[1]; 40° C./75% RH, Initial",1.11%
CC[C@H]1OC(=O)[C@@](C)(F)C(=O)[C@H](C)[C@@H](O[C@@H]2O[C@H](C)C[C@H](N(C)C)[C@H]2O)[C@](C)(OC)C[C@@H](C)C(=O)[C@H](C)[C@H]2N(CCCCn3cc(-c4cccc(N)c4)nn3)C(=O)O[C@]12C [Form I (Lot 4)],3-Ethynylaniline,"[1]; 2-8° C., 3 Month",0.01%
same,Assay (on hydrous basis),"[1]; 2-8° C., 3 Month",98.4%
same,Chromatographic Purity,"[1]; 2-8° C., 3 Month",98.1%
same,Water,"[1]; 2-8° C., 3 Month",1.56%
same,3-Ethynylaniline,"[1]; 2-8° C., 6 Month",0.01%
same,Assay (on hydrous basis),"[1]; 2-8° C., 6 Month",98.3%
same,Chromatographic Purity,"[1]; 2-8° C., 6 Month",98.3%
same,Water,"[1]; 2-8° C., 6 Month",1.47%
same,3-Ethynylaniline,"[1]; 2-8° C., 12 Month",Not Detected
same,Assay (on hydrous basis),"[1]; 2-8° C., 12 Month",98.2%
same,Chromatographic Purity,"[1]; 2-8° C., 12 Month",98.4%
same,Water,"[1]; 2-8° C., 12 Month",1.51%
same,3-Ethynylaniline,"[1]; 2-8° C., Initial",0.01%
same,Assay (on hydrous basis),"[1]; 2-8° C., Initial",99.0%
same,Chromatographic Purity,"[1]; 2-8° C., Initial",98.2%
same,Water,"[1]; 2-8° C., Initial",0.92%
same,3-Ethynylaniline,"[1]; 25° C./60% RH, 3 Month",0.01%
same,Assay (on hydrous basis),"[1]; 25° C./60% RH, 3 Month",98.3%
same,Chromatographic Purity,"[1]; 25° C./60% RH, 3 Month",98.1%
same,Water,"[1]; 25° C./60% RH, 3 Month",1.59%
same,3-Ethynylaniline,"[1]; 25° C./60% RH, 6 Month",Not Detected
same,Assay (on hydrous basis),"[1]; 25° C./60% RH, 6 Month",98.2%
same,Chromatographic Purity,"[1]; 25° C./60% RH, 6 Month",98.4%
same,Water,"[1]; 25° C./60% RH, 6 Month",1.75%
same,3-Ethynylaniline,"[1]; 25° C./60% RH, 12 Month",Not Detected
same,Assay (on hydrous basis),"[1]; 25° C./60% RH, 12 Month",98.1%
same,Chromatographic Purity,"[1]; 25° C./60% RH, 12 Month",98.4%
same,Water,"[1]; 25° C./60% RH, 12 Month",1.78%
same,3-Ethynylaniline,"[1]; 25° C./60% RH, Initial",0.01%
same,Assay (on hydrous basis),"[1]; 25° C./60% RH, Initial",99.0%
same,Chromatographic Purity,"[1]; 25° C./60% RH, Initial",98.2%
same,Water,"[1]; 25° C./60% RH, Initial",0.92%
same,3-Ethynylaniline,"[1]; 40° C./75% RH, 3 Month",0.01%
same,Assay (on hydrous basis),"[1]; 40° C./75% RH, 3 Month",98.2%
same,Chromatographic Purity,"[1]; 40° C./75% RH, 3 Month",98.4%
same,Water,"[1]; 40° C./75% RH, 3 Month",1.65%
same,3-Ethynylaniline,"[1]; 40° C./75% RH, 12 Month",0.01%
same,Assay (on hydrous basis),"[1]; 40° C./75% RH, 12 Month",98.1%
same,Chromatographic Purity,"[1]; 40° C./75% RH, 12 Month",98.3%
same,Water,"[1]; 40° C./75% RH, 12 Month",1.82%
same,3-Ethynylaniline,"[1]; 40° C./75% RH, Initial",0.01%
same,Assay (on hydrous basis),"[1]; 40° C./75% RH, Initial",99.0%
same,Chromatographic Purity,"[1]; 40° C./75% RH, Initial",98.2%
same,Water,"[1]; 40° C./75% RH, Initial",0.92%
CC[C@H]1OC(=O)[C@@](C)(F)C(=O)[C@H](C)[C@@H](O[C@@H]2O[C@H](C)C[C@H](N(C)C)[C@H]2O)[C@](C)(OC)C[C@@H](C)C(=O)[C@H](C)[C@H]2N(CCCCn3cc(-c4cccc(N)c4)nn3)C(=O)O[C@]12C [CEM-101 Form A and B Solids],XRPD Result,"[2]; slurry in IPA, 2-8° C. 3 days",Form I + II
same,XRPD Result,"[2]; slurry in IPA, 2-8° C. 5 days (8 days total), continuation of previous slurry",Form I + II
same,XRPD Result,"[2]; slurry in IPA, 60° C. 3 days",Form II
same,XRPD Result,"[2]; slurry in IPA, RT 3 days",Form I + II
same,XRPD Result,"[2]; slurry in MEK, 2-8° C. 3 days",Form II
same,XRPD Result,"[2]; slurry in MEK, 60° C. 3 days (6 days total), continuation with additional solids",Form II
same,XRPD Result,"[2]; slurry in MEK, RT 3 days",Form II
CC[C@H]1OC(=O)[C@@](C)(F)C(=O)[C@H](C)[C@@H](O[C@@H]2O[C@H](C)C[C@H](N(C)C)[C@H]2O)[C@](C)(OC)C[C@@H](C)C(=O)[C@H](C)[C@H]2N(CCCCn3cc(-c4cccc(N)c4)nn3)C(=O)O[C@]12C [Form I Batch A],Mean intrinsic dissolution rate,[3]; 0.1N Hydrochloric Acid,9.4 mg/min/cm^2
same,Mean intrinsic dissolution rate,"[3]; Acetate buffer, pH 4.5",2.1 mg/min/cm^2
same,Mean intrinsic dissolution rate,"[3]; Phosphate buffer, pH 6.8",0.004 mg/min/cm^2
same,Mean intrinsic dissolution rate,"[3]; Phosphate buffer, pH 7.6",0.02 mg/min/cm^2
same,Mean intrinsic dissolution rate,[3]; Water,2.0 mg/min/cm^2
CC[C@H]1OC(=O)[C@@](C)(F)C(=O)[C@H](C)[C@@H](O[C@@H]2O[C@H](C)C[C@H](N(C)C)[C@H]2O)[C@](C)(OC)C[C@@H](C)C(=O)[C@H](C)[C@H]2N(CCCCn3cc(-c4cccc(N)c4)nn3)C(=O)O[C@]12C [Form I Batch B],Mean intrinsic dissolution rate,[3]; 0.1N Hydrochloric Acid,10.6 mg/min/cm^2
same,Mean intrinsic dissolution rate,"[3]; Acetate buffer, pH 4.5",2.8 mg/min/cm^2
same,Mean intrinsic dissolution rate,"[3]; Phosphate buffer, pH 6.8",0.03 mg/min/cm^2
same,Mean intrinsic dissolution rate,"[3]; Phosphate buffer, pH 7.6",0.001 mg/min/cm^2
same,Mean intrinsic dissolution rate,[3]; Water,0.7 mg/min/cm^2
CC[C@H]1OC(=O)[C@@](C)(F)C(=O)[C@H](C)[C@@H](O[C@@H]2O[C@H](C)C[C@H](N(C)C)[C@H]2O)[C@@](C)(OC)C[C@@H](C)C(=O)[C@H](C)[C@H]2N(CCCCn3cc(-c4cccc(N)c4)nn3)C(=O)O[C@]12C [Form I Batch C],Mean intrinsic dissolution rate,[3]; 0.1N Hydrochloric Acid,7.9 mg/min/cm^2
same,Mean intrinsic dissolution rate,"[3]; Acetate buffer, pH 4.5",2.7 mg/min/cm^2
same,Mean intrinsic dissolution rate,"[3]; Phosphate buffer, pH 6.8",0.02 mg/min/cm^2
same,Mean intrinsic dissolution rate,[3]; Water,1.6 mg/min/cm^2
